Source: patent US10806726B2, “Methods of using indazole-3-carb oxamides and their use as Wnt/B-catenin signaling pathway inhibitors” (Samumed, LLC, priority 2016, dated 2020)
pEC50: −log10 of the molar value.

Legend:
[1] = test system: primary human mesenchymal stem cells (hMSCs); assay: Tenocyte Differentiation Assay, hMSCs, 7 days (Example 11); format: cell-based; conditions: 168 h, 750-5.8 nM, read-out: EC50, induction of SCXA, TenacinC and Tenomodulin expression
Description: Primary human mesenchymal stem cells (hMSCs; Lonza Inc) were cultured in MSCGM™ Mesenchymal Stem Cell Growth Medium, with 10% FBS (Lonza) 10% fetal bovine serum (FBS) (Hyclone) at 37° C., 5% CO2. hMSCs were used between passage 2 and 6 and were never allowed to reach confluence to maintain a naive state.
Tenocyte Differentiation Assay. For tenocyte differentiation, hMSCs were plated in 384-well plates at 1×10^4 cells/well in Dulbecco's modified Eagle's medium (DMEM, ThermoFisher) with 1% fetal bovine serum (FBS) (Hyclone). Cells were then treated with DMSO (vehicle control) or compound 175 at 750 nM top concentration and 2-fold dilution up to 8 concentrations ([…], 166.6, 83.3, 41.7, 21.7, 10.8 and 5.8 nM) and incubated for 7 days at 37° C. A combination of BMP and FGF ([…], Peprotech, Inc.) was used as a positive control. […] Plates were imaged using a CX5 high-content imager (ThermoFisher) and the % of cells stained positive were determined using a cell scoring algorithm (ThermoFisher). Data was plotted and EC50 was calculated using Prism 5 (GraphPad Software Inc, La Jolla, Calif., USA). […]

[2] = test system: collagenase-induced tendonitis of the Achilles tendon in Sprague Dawley rats; assay: Rat Tendinopathy Model (2), collagenase-induced, tendon histology scoring; format: in vivo; conditions: for tendon histology score: topical once daily 21 days, total score of 20
Description: Fifty (50 μl) of Collagenase Type IA (10 mg/ml in PBS, pH 7.4, approximately 469 units/mg) (Catalog # C5138, Sigma, St. Louis, Mo.) was injected into the Achilles tendon of both ankles near the osteotendinous junction of male Sprague Dawley CD® IGS rats (CRL, Inc.), using insulin syringes with 28.5 G needle.
Rats were divided into 6 groups, with 6 animals per group except 8 animals in Group 2: Group 1 (sham injection), Group 2 (Collagenase-Vehicle with 0.5% Phx), Group 3 (Collagenase-compound 175 3 mg/mL with 0.5% BA), Group 4 (Collagenase-compound 175 10 mg/mL with 0.5% BA), Group 5 (Collagenase-compound 175 3 mg/mL with 0.5% Phx) and Group 6 (Collagenase-compound 175 10 mg/mL with 0.5% Phx). […] All rats were periodically observed for any pain, illnesses or abnormalities. At various time points, blood was collected for plasma in lithium heparin coated tubes by saphenous vein bleeding. For histology, rats were euthanized using isoflurane, tendons were isolated (n=8 tendons/group), fixed in 10% buffered formalin (Catalog # SF93-4, Fisher, Pittsburgh, Pa.) and H & E histology staining was performed at a secondary site (Pacific Pathology, San Diego, Calif.). For biochemical analysis, tendons were isolated (n=4 tendons/group), flash frozen in liquid nitrogen and then stored at −80° C. for subsequent biochemical analysis (not reported). Additionally, one (1) day after collagenase injection, 4 tendons were collected from Group 2 (vehicle) to observe the induction of inflammation (not reported).
There is biological variability in response to collagenase when injected directly into the tendons. […] Therefore, the entire tendon was isolated and placed in a tissue cassette and embedded in paraffin. Five (5) μm sections were generated with an average of 3 sections being fixed on one slide with a minimum of eight (8) slides per tendon and subjected to Hematoxylin & Eosin (H&E) staining. Slides were viewed under an upright light microscope (EVOS AMEX-1200) at a 10× magnification and scored blinded using a 1-4 scoring system of severity: 1-representing severe damage and 4—representing normal tendon, for Linearity of the fiber structure, Shape of the tendon cells, Density of the tendon cells, Inflammation, and Hemorrhage for a total score of twenty (20) using a modification of that described previously (Urdzikova et al., 2014—see Table 3). After the analysis was completed, the scorer was unblinded and scores for each criterion was annotated, totaled and total scores from each section were averaged together to generate a final score for each rat followed by averaging of scores for a given treatment group.
For tendon scoring, each section was analyzed following a 1-4 point scoring system as previously described (Urdzikova et al., 2014) with the exclusion of one variable, Thickness of the epitenon, due to difficulty in discerning the epitenon layer in the histology sections. In this study, a total of 94 sections were scored for Group 1 (sham injection, control group) and between 92-116 sections for Group 2 (Collagenase-Vehicle with 0.5% Phx); Group 3 (Collagenase-compound 175 3 mg/mL with 0.5% BA), Group 4 (Collagenase-compound 175 10 mg/mL with 0.5% BA), Group 5 (Collagenase-compound 175 3 mg/mL with 0.5% Phx) and Group 6 (Collagenase-compound 175 10 mg/mL with 0.5% Phx).

pEC50 [1]: 6.72 to 6.86
Compound: COc1ccc(NC(=O)c2n[nH]c3ccc(-c4cncc(CN5CCCCC5)c4)cc23)cn1 [compound 175, N-(6-Methoxypyridin-3-yl)-5-(5-(piperidin-1-ylmethyl)pyridin-3-yl)-1H-indazole-3-carboxamide]
blinded histology scoring of tendon injury and inflammation vs vehicle ([2]; 3 and 10 mg/mL, with either BA or Phx as preservative): significantly ameliorated collagenase-induced tendinopathy
tendon histology score ([2]; Group 3, 3 mg/mL with 0.5% BA): 14.5 (±1.15)
tendon histology score ([2]; Group 4, 10 mg/mL with 0.5% BA): 14.8 (±0.968)
tendon histology score ([2]; Group 5, 3 mg/mL with 0.5% Phx): 15.1 (±0.506)
tendon histology score ([2]; Group 6, 10 mg/mL with 0.5% Phx): 13.2 (±0.855)
